The text below walks through data of ChEMBL document CHEMBL3217650, “Discovery of novel selective Sigma-1 ligands as cognitive enhancers” (Medchemcomm, 2011).

Data set [1] can be described thus: Octanol-water distribution coefficient, log D of the compound at pH 7.4. Type of data set: physicochemical.
Data set [2] is described as follows: Dissociation constant, pKa of the compound. Type of data set: physicochemical.
Data set [3] concerns the target Sigma non-opioid intracellular receptor 1 (Homo sapiens, UniProt Q99720). In words: Displacement of [3H]-pentazocine from human recombinant sigma-1 receptor expressed in CHO cells after 180 mins by beta counting analysis. Type of data set: cell-based.
The nature of data set [4]: Intrinsic clearance in rat liver microsomes measured per mg of protein. Type of data set: ADME. The note with it: read-out: CLH.
For data set [5], the target named is 5-hydroxytryptamine receptor 2A (Homo sapiens) (UniProt P28223). Briefly: Binding affinity to 5HT-2a receptor (unknown origin) at 10 uM by displacement assay relative to control.
5-hydroxytryptamine receptor 2A (Homo sapiens), sequence (P28223 whole entry): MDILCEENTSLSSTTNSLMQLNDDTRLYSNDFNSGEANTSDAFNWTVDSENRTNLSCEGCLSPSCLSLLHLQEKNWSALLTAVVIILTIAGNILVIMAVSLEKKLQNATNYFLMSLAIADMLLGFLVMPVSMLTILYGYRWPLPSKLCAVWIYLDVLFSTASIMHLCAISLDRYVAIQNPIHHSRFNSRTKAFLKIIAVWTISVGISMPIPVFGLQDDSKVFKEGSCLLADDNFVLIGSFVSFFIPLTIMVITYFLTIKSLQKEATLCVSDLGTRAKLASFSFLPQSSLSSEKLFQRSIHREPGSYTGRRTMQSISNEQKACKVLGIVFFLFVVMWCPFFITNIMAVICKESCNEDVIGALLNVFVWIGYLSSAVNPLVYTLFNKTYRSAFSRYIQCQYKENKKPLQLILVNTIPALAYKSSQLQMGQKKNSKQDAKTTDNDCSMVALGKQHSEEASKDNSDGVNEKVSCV
Data set [6] has as its target Histamine H1 receptor (Homo sapiens) (UniProt P35367). Briefly: Binding affinity to histamine H1 receptor (unknown origin) at 10 uM by displacement assay relative to control.
Data set [7] is filed under the species Homo sapiens. In words: Binding affinity to […] channel (unknown origin) at 10 uM by displacement assay relative to control.
Data set [8] is filed under the species Rattus norvegicus. In words: Displacement of [3H]1,3-di-O-tolylguanidine from sigma-2 receptor in rat cerebral cortex at 10 uM relative to control. The class given is tissue-based.
Data set [9] is filed under the species Homo sapiens. Briefly: Binding affinity to Ca2+ channel (unknown origin) at 10 uM by displacement assay relative to control.
Data set [10] has as its target Adrenergic receptor alpha-1 (Homo sapiens) (UniProt P35348+P25100+P35368). Briefly: Binding affinity to adrenergic alpha-1 receptor (unknown origin) at 10 uM by displacement assay relative to control. The class given is protein assay.

Sigma non-opioid intracellular receptor 1, sequence (Q99720 whole entry): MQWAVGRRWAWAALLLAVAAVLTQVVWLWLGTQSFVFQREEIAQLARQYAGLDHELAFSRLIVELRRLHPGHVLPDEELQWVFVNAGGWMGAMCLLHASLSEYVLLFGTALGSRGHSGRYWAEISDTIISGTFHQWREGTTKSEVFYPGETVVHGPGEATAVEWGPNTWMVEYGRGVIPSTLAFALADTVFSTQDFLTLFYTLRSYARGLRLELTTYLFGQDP
Histamine H1 receptor (Homo sapiens), sequence (P35367 whole entry): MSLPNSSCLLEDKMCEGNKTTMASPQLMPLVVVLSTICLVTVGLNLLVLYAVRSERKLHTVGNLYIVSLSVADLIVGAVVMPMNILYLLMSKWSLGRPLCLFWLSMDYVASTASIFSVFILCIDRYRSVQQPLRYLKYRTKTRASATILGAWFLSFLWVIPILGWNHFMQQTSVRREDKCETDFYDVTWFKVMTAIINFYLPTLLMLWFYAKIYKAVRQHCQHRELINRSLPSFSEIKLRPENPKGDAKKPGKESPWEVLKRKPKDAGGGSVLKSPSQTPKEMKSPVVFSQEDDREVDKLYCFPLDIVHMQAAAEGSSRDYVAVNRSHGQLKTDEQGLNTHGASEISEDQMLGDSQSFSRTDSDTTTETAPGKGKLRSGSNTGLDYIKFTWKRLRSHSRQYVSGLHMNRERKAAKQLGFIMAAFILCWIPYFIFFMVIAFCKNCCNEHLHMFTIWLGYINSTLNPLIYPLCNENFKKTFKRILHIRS

As for `O=C(NC1CCC(N2CCCCC2)CC1)[C@H]1C[C@@H]1c1ccccc1` (mixture of isomers), the logD in data set [1] (read-out: logD) was determined as 0.9. The compound further had a pKa in data set [2] of 9.6. Besides, the Ki in data set [3] was 1260 nM.

The compound `O=C(NCCCNC1CCCCC1)[C@H]1C[C@@H]1c1ccccc1` (racemic) [listing 1 of 2 here] came in with a logD in data set [1] of 1.3. Besides, the pKa in data set [2] is 10.1. Further, in data set [3], the Ki was 200 nM.

On to `CC(C)N(CCNC(=O)[C@H]1C[C@@H]1c1ccccc1)C(C)C` (racemic), for which the microsomal CLint in [4] is above 300 µL/min/mg. The inhibition in data set [5] is 50%. For the same compound, in [1] (read-out: logD), the logD came out at 1. In data set [2], this compound gave a pKa of 9.7. Moreover, the inhibition constant Ki in [3] is 63.1 nM.

Regarding `O=C(NCCN1CCCC1)[C@H]1C[C@@H]1c1ccccc1` (racemic), the inhibition in [5] is above 90%. Moreover, the logD in [1] (read-out: logD) was found to be 0.9. In addition, the pKa in data set [2] was determined as 9.2. Also, the Ki in data set [3] was 63.1 nM.

Regarding `CN(C)CC(C)(C)CNC(=O)[C@H]1C[C@@H]1c1ccccc1` (racemic), the logD in [1] (read-out: logD) was determined as 0.8. This compound also yielded a pKa in data set [2] of 8.9. For the same compound, in data set [3], the Ki was 398 nM.

As to `O=C(NCCN1CCN(Cc2ccc(Cl)c(Cl)c2)CC1)[C@H]1C[C@@H]1c1ccccc1` (racemic), the microsomal CLint in data set [4] amounted to 200 µL/min/mg. Further, the inhibition in [5] is above 90%; in [6] it was 50%; in data set [7], 50%. Moreover, the logD in [1] (read-out: logD) is above 4. The Ki in data set [3] is 10 nM.

For `O=C(NCCN1CCN(Cc2c(F)cccc2Cl)CC1)[C@H]1C[C@@H]1c1ccccc1` (racemic), the microsomal CLint in [4] turned out to be 283 µL/min/mg. The logD in data set [1] (read-out: logD) was found to be 3.7. Moreover, in [3], the Ki was 25.1 nM.

With `O=C(NCCN1CCN(C(=O)c2c(F)cccc2Cl)CC1)[C@H]1C[C@@H]1c1ccccc1` (racemic), the microsomal CLint in data set [4] came to 81 µL/min/mg. This compound also yielded an inhibition in data set [5] above 90%. The logD in data set [1] (read-out: logD) was determined as 2.3. Further, in data set [3], the Ki was 631 nM.

With `O=C([C@H]1C[C@@H]1c1ccccc1)N1CCN(c2ccccc2)CC1` (racemic), in data set [1] (read-out: logD), the logD worked out at 3.8. In addition, the pKa in data set [2] was below 2.5. Moreover, the Ki in data set [3] is 1260 nM.

As for `O=C([C@H]1C[C@@H]1c1ccccc1)N1CCC(N2CCCC2)CC1` (racemic), in data set [4], the microsomal CLint came to 25 µL/min/mg. For the same compound, in [1] (read-out: logD), the logD came out at 0.7. Also, the pKa in data set [2] was determined as 9.3. For the same compound, the Ki in data set [3] is 200 nM.

Take `O=C([C@H]1C[C@@H]1c1ccc(F)cc1)N1CCC(N2CCCCC2)CC1` (racemic): in [8], the inhibition is 61%. For the same compound, in [3], the Ki was 100 nM.

With `O=C(NCCCNC1CCCCC1)[C@H]1C[C@@H]1c1ccccc1` (racemic) [listing 2 of 2 here], the inhibition in data set [5] was 50%; in [9], above 90%; in data set [10] it was 50%.

Take `O=C(NCCCNC1CCCCC1)[C@H]1C[C@@H]1c1ccccc1` (stereo in doubt; (+)-1): the microsomal CLint in [4] is 147 µL/min/mg. Besides, in data set [3], the Ki was 158 nM.

For the compound `O=C(NCCCNC1CCCCC1)[C@H]1C[C@@H]1c1ccccc1` (stereo in doubt; (-)-1) [listing 1 of 2 here], the logD in [1] (read-out: logD) stood at 1.1. In addition, the Ki in [3] is 158 nM.

Take `O=C(NCCCNC1CCCCC1)[C@H]1C[C@@H]1c1ccccc1` (stereo in doubt; (-)-1) [listing 2 of 2 here]: the inhibition in data set [7] amounted to 50%.
